We go through one compound from patent publication US10835513B2, “Methods and treatments for the learning and memory deficits associated with Noonan syndrome” (The Regents of the University of California, priority 2013, dated 2020).

For test [1], the system named is AAV-PTPN11^D61G-expressing mice. In words: Morris water maze (hidden platform, probe trial) in AAV-PTPN11^D61G-expressing mice treated with SL327. The format is in vivo. The settings on record: for proximity to the target platform, probe trial: SL327 32 mg/kg intraperitoneal. The method, then:
To test whether reducing Erk activity could reverse the memory deficit in AAV-PTPN11^D61G-expressing mice, we treated these mice with the MEK inhibitor SL327 or vehicle daily, 30 min before training.
SL327 (Tocris) was dissolved in DMSO (16 mg/ml) and was injected intraperitoneally once daily, 30 min before the water maze experiment at a dose of 32 mg/kg. The volume of a single injection was under 80 μl. Lovastatin (Mevinolin, Sigma) was prepared as previously described^21. Briefly, lovastatin was dissolved in ethanol (final concentration of 8%) and 1N NaOH was added to convert mevinolin to the sodium salt. The pH of the final solution (4 mg/ml) was adjusted to 7.5 with HCl. The Vehicle solution was prepared with the same procedure. Lovastatin was administered daily (subcutaneous injection, 10 mg/kg) for 3 days before the first training day of the water maze and 6 hr before training every day thereafter.
The coding sequence of human PTPN11 with or without the D61G mutation was subcloned into the HindIII-NsiI site of the AAV expression vector pSOFF. The resultant vector expresses mutant PTPN11 under the synthetic CBA promoter (CMV enhancer and chicken beta-actin promoter). Recombinant virus (rAAV5) was purified as previously described^32. Briefly, an iodixanol gradient purification was performed followed by ion exchange chromatography step which results in a 99% pure vector preparation as judged by silver stained-SDS acrylamide gel fractionation. After the chromatography, the buffer was exchanged and the virus was concentrated in Ringer's solution using a Biomax 100 K concentrator (Millipore). Vector titers were determined by Real Time PCR. Typical titers were 3.09×10^12 genome copies/ml. rAAV5-GFP expressing only GFP was used as a control. […]
In the hidden platform-version of Morris water maze, mice were trained with two blocks of 2 trials (ITI=1 min) spaced about 45 min apart. […] Memory was assessed in probe trials that were given after completion of training as described in the main text. […] Data were acquired and analyzed using WaterMaze software (Actimetrics).

Test [2] has as its system hippocampal slices from the AAV-PTPN11^D61G-infected mice. In words: 5 TBS-induced CA1 Schaffer collateral LTP, extracellular field recordings, bath-applied SL327. The settings on record: SL327 1 μM applied 1 hr before LTP induction and kept in bath. The test is classed as cell-based. From the text: FIG. 3 are graphs showing that PTPN11^D61G overexpression induces learning and memory and LTP deficits that can be reversed by MEK inhibition. Panel a) AAV5-PTPN11^D61G infection results in overexpression of SHP2^D61G. […] Panel b) PTPN11^D61G overexpression increases basal Erk activity (phospho-Erk level) and prevents further Eric activation in response to TBS. Left, Representative immunoblot showing p-Erk (upper) and total Eric (lower) in PTPN11^D61G-expressing slices and GFP-expressing slices. Slices were prepared 1 hr after TBS. […] Panels c and d) MEK inhibitor SL327 (CAS 305350-87-2) reverses spatial memory deficits in PTPN11^D61G-overexpressing mice. […]
For extracellular recordings of field excitatory postsynaptic potentials (fEPSP), sagittal slices (400 μm) were prepared with a vibratome (VT1000S, Leica) in ice-cold artificial cerebrospinal fluid (ACSF). […] Recording was performed in a submerged chamber perfused with ACSF (32° C.). fEPSPs were recorded with platinum-iridium electrodes placed in the CA1 stratum radiatum. […] Baseline responses were measured with stimulation (0.017 Hz, 0.1 ms pulse duration) at an intensity (typically 20-30 μA) that evoked a response that was approximately one third of the maximum evoked response. […] Initial fEPSP slopes were measured and normalized to the average of baseline (Clampfit 10.2).

For `N#C/C(=C(/N)Sc1ccc(N)cc1)c1ccccc1C(F)(F)F` [SL327], the “proximity to the target platform, probe trial” value is recorded as 43.75±1.45 cm in test [1] (GFP control group) and 45.52±2.14 cm in test [1] (PTPN11^D61G group). For the same compound, the “time spent in the target quadrant, probe trial” value in test [1] (PTPN11^D61G-expressing mice, SL327 32 mg/kg intraperitoneal daily, 30 min before training) was determined as 37.25±3.50%. The “Average % fEPSP changes (last 10 minutes of recording), 5 TBS-induced LTP” value worked out at 146.2±4.37% in test [2] (GFP slices) and 146.1±4.36% in test [2] (PTPN11^D61G slices).
